Laboratory results published in paper PMC8396344, “Palmitoylation of Prolactin-Releasing Peptide Increased Affinity for and Activation of the GPR10, NPFF-R2 and NPFF-R1 Receptors: In Vitro Study” (International Journal of Molecular Sciences, 2021).
Values belong to the molecule of their own block, whether it stands above or below them. Starred links: 1 amine or outer side, 2 acyl side, 3 side chain; linkers in the order of their positions; H or OH if unused. Non-standard residues stand in square brackets, D forms with d. Residues, ends and D or L forms follow the SMILES beside them. Groups on a side chain read outwards from the residue. No end group written: not given here. *: point of attachment. γGlu = O=C(O)[C@H](CCC(=O)[*:2])N[*:1]; Palmitoyl = CCCCCCCCCCCCCCCC(=O)*; NMeF = CN[C@@H](Cc1ccccc1)C(=O)O

Legend:
[1] = target: T1, GPR10 (human, UniProt P49683 1-370)
T1 sequence (looked up): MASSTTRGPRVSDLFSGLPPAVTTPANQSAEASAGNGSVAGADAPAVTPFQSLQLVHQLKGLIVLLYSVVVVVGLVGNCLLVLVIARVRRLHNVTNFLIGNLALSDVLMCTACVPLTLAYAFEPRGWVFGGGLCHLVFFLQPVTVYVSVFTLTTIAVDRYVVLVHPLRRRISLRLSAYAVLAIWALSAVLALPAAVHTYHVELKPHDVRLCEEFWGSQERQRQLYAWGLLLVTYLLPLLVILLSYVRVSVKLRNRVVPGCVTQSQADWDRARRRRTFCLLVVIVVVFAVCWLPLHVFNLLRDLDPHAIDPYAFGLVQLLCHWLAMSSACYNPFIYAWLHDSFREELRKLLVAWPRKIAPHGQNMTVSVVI

[2] = target: T2, MOR (Homo sapiens, UniProt P35372); test: Beta-lactamase reporter gene assay (FRET), MOR; format: cell-based
T2 construct: host or cells: U2OS

[3] = target: T3, NPFF-R2 (Homo sapiens, UniProt Q9Y5X5); test: Intracellular Ca^2+ mobilization, AequoScreen CHO-K1 cells with NPFF-R2; format: cell-based; conditions: CHO-K1 NPFF-R2 aequorin cells; peptides 10^−12 to 10^−5 M; mean ± SEM, three times in duplicates; read-out: EC50 intracellular Ca^2+ release, NPFF-R2
T3 construct: host or cells: CHO-K1 (AequoScreen, co-expressing aequorin)
Description: The intracellular Ca^2+ level was measured using the AequoScreen stable CHO-K1 cell line containing NPFF-R2 purchased from Perkin Elmer according to the manufacturer’s protocol. Cells at 80–90% confluence cultured in media without selective antibiotics were detached (PBS pH 7.4 + 0.5 mM EDTA) and centrifuged. Cells resuspended in phenol red-free DMEM with 0.1% protease-free BSA and 5 µM coelenterazine h (Thermo Fisher Scientific Inc. Brand) were seeded at 50,000 cells/well in 96-well plates and incubated in the dark at RT with gentle agitation for 4 h. Peptides were tested at concentrations from 10^−12 to 10^−5 M. Luminescent light emission was recorded using a FlexStation 3 plate reader.
Ca^2+ release assay data are shown as the percentage of maximal response, and the results were analyzed by nonlinear regression as log agonist versus response using GraphPad software. Data are representative of at least three experiments, each performed in duplicate.

[4] = target: T4, DOR (Homo sapiens, UniProt P41143); test: Beta-lactamase reporter gene assay (FRET), DOR; format: cell-based; conditions: β-lactamase assay, agonist mode, U2OS cells; mean ± SEM, 2–3 independent experiments in duplicates
T4 construct: host or cells: U2OS

[5] = target: T5, Y1 (Homo sapiens, UniProt P25929); test: Competitive and saturation binding, [^125I]-PYY, U2OS cells with Y1
T5 construct: host or cells: U2OS
T5 sequence (P25929 1-384): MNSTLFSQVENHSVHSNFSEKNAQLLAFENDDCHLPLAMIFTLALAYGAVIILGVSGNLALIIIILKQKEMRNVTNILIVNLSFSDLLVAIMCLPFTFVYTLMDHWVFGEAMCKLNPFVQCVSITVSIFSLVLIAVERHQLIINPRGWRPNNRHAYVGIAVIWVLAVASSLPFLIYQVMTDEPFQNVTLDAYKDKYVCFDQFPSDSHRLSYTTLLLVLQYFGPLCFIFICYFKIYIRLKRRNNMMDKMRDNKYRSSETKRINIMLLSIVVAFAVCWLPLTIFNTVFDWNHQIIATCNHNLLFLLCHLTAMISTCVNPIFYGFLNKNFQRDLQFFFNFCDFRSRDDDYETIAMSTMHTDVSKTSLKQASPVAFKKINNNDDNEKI
Description: (§1) Competition binding experiments were performed according to [45]. […] Binding experiments using U2OS cells were optimized and performed in assay buffer (50 mM Tris-Cl pH 7.4, 118 mM NaCl, 5 mM MgCl2, 4.7 mM KCl, 0.1% BSA) for cells stably expressing GHSR and (25 mM HEPES, 120 mM NaCl, 5 mM MgCl2, 4.7 mM KCl, 1 mM CaCl2, 0.5% BSA, 2 g/L glucose) for cells containing receptors Y1, Y2 and Y5. […] Cells were incubated for 60 min at room temperature (RT).
(§2) Experiments were carried out in duplicate at least three times, and Ki was calculated using the Cheng-Prusoff equation.
(§3) Data were analyzed by GraphPad Software (San Diego, CA, USA) and are presented as the means ± SEM. The saturation and competitive binding experiments were analyzed according to [46] using the Cheng-Prusoff equation [33]. The competitive binding curves were plotted compared to the best fit for single-binding site models, and half maximal inhibitory concentration (IC50) values were obtained from nonlinear regression analysis. From saturation binding experiments, the dissociation constant (Kd) and number of binding sites/cell (Bmax) were calculated. Inhibition constants (Ki) were calculated from IC50 values, Kd and the concentration of radioligands.

[6] = target: T6, GPR10 (Homo sapiens, UniProt P49683); test: Cell signaling by immunoblotting, CHO-K1 cells expressing GPR10; format: cell-based; conditions: dose-response 10^−11 to 10^−5 M, 5 min, 37 °C, immunoblot, at least two experiments
T6 construct: host or cells: CHO-K1
T6 sequence (P49683 1-370): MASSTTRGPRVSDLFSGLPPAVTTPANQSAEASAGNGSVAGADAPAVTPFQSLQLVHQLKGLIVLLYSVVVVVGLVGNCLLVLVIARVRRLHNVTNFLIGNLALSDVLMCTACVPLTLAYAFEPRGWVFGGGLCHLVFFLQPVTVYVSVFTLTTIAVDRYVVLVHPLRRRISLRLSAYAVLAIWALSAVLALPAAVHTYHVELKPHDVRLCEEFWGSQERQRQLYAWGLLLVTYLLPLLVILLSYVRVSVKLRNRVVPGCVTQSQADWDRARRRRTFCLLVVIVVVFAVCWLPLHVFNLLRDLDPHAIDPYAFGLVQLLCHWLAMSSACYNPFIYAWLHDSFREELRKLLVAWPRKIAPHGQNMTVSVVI
Description: (§4) Activation of signaling pathways was studied in the CHO-K1 cell lines containing GPR10, NPFF-R2 and NPFF-R1. Cells were seeded in 24-well plates at 30,000 cells/well in assay medium (growth medium without selective antibiotics) and were grown for 2 days. The day before the experiment, the medium was changed to serum-free medium. […] Cells were lysed with Laemmli sample buffer (62.5 mM Tris-HCl at pH 6.8, 2% SDS, 10% glycerol, 0.01% bromophenol blue, 5% β-mercaptoethanol, 50 mM NaF, and 1 mM Na3VO4). Samples were stored at −20 °C. Electrophoresis and immunoblotting were performed as described previously. For detection of signaling pathways, primary monoclonal antibodies (see Table 5 for the antibodies used) purchased from Cell Signaling Technology (Danvers, MA, USA) were used.
(§5) Experiments using immunoblotting were analyzed using one-way ANOVA followed by Dunnett’s post hoc test; p < 0.05 was considered statistically significant. Dose-response curves were obtained from nonlinear regression.

[7] = target: T7, ORL-1 (Homo sapiens, UniProt P41146); test: Beta-lactamase reporter gene assay (FRET), ORL-1; format: cell-based; conditions: β-lactamase assay, agonist mode, U2OS cells; mean ± SEM, 2–3 independent experiments in duplicates
T7 construct: host or cells: U2OS

[8] = target: T8, Y2 (Homo sapiens, UniProt P49146); test: Competitive and saturation binding, [^125I]-PYY, U2OS cells with Y2
T8 construct: host or cells: U2OS
T8 sequence (P49146 1-381): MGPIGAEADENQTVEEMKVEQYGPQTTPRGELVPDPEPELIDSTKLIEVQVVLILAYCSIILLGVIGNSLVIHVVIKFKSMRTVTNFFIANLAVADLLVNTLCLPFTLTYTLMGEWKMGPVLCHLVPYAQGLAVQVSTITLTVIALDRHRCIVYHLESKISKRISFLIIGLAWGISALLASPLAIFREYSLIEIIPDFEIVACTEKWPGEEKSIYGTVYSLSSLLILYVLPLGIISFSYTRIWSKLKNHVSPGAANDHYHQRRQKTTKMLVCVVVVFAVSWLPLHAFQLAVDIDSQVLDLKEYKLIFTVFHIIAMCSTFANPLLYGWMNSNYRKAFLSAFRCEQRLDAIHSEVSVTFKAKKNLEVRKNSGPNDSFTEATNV
Description: as §1, §2, §3

[9] = target: T9, KOR (Homo sapiens, UniProt P41145); test: cell-based
T9 construct: host or cells: CHO-K1

[10] = target: T3, NPFF-R2; test: Cell signaling by immunoblotting, CHO-K1 cells expressing NPFF-R2; format: cell-based; conditions: dose-response 10^−11 to 10^−5 M, 5 min, 37 °C, immunoblot, at least two experiments
Description: as §4, with “Cells” for “Activation of signaling pathways was studied in the CHO-K1 cell lines containing GPR10, NPFF-R2 and NPFF-R1. Cells”
as §5

[11] = target: kappa-opioid receptor (UniProt P41145 1-380); test: radioligand binding; competition with [^125I]-dynorphin A on plasma membranes of CHO-K1 cells with KOR, 5 µg protein/tube; 50 mM Tris-HCl pH 7.4, 60 mM NaCl, 1 mM MgCl2, 0.5% BSA; 60 min at RT; filtration; Ki by the Cheng-Prusoff equation
[12] = target: T6, GPR10; test: Competitive binding, [^125I]-PrRP31, CHO-K1 cells expressing GPR10; conditions: competition with [^125I]-PrRP31, CHO-K1 cells expressing human GPR10; mean ± SEM, 2–5 independent experiments in duplicates; Cheng-Prusoff; read-out: Ki GPR10 [^125I]-PrRP31
[13] = target: T10, NPFF-R2 (UniProt Q9Y5X5 1-522); test: radioligand binding; competition with [^125I]-1DMe on plasma membranes of CHO-K1 cells with NPFF-R2 or NPFF-R1, 5 µg protein/tube; 50 mM Tris-HCl pH 7.4, 60 mM NaCl, 1 mM MgCl2, 0.5% BSA; 60 min at RT; filtration; Ki by the Cheng-Prusoff equation; conditions: one partner purified
T10 construct: also called NPFF-2R; source: CHO-K1 cell line (AequoScreen), bought: Perkin Elmer

[14] = target: T11, NPFF-R1 (UniProt Q9GZQ6 1-430); test: as above; conditions: one partner purified
T11 construct: also called NPFF-1R; source: CHO-K1 cell line, bought: Perkin Elmer

EC50, agonist mode, β-lactamase reporter assay [1]: 0.53 nM
Molecule: human prolactin-releasing peptide 31

Molecule: CCCCCCCCCCCCCCCC(=O)N[C@@H](CCC(=O)NCCCC[C@H](NC(=O)[C@@H](NC(=O)[C@H](CCC(=O)O)NC(=O)[C@H](CCSC)NC(=O)[C@H](CO)NC(=O)[C@H](Cc1c[nH]cn1)NC(=O)[C@H](CCCNC(=N)N)NC(=O)[C@H](Cc1c[nH]cn1)NC(=O)[C@@H](NC(=O)[C@H](CCCNC(=N)N)NC(=O)[C@@H](N)CO)[C@@H](C)O)[C@@H](C)CC)C(=O)N[C@H](C(=O)N1CCC[C@H]1C(=O)N[C@@H](CC(=O)O)C(=O)N[C@H](C(=O)N[C@@H](CC(N)=O)C(=O)N1CCC[C@H]1C(=O)N[C@@H](C)C(=O)N[C@@H](Cc1c[nH]c2ccccc12)C(=O)N[C@@H](Cc1ccc(O)cc1)C(=O)N[C@@H](C)C(=O)N[C@@H](CO)C(=O)N[C@@H](CCCNC(=N)N)C(=O)NCC(=O)N[C@H](C(=O)N[C@@H](CCCNC(=N)N)C(=O)N1CCC[C@H]1C(=O)N[C@H](C(=O)NCC(=O)N[C@@H](CCCNC(=N)N)C(=O)N[C@@H](Cc1ccccc1)C(N)=O)C(C)C)[C@@H](C)CC)[C@@H](C)CC)[C@@H](C)O)C(=O)O [Palm^11-PrRP31] (H-SRTHRHSMEIK([γGlu-Palmitoyl])TPDINPAWYASRGIRPVGRF-NH2)
EC50 [2]: > 10000 nM | EC50 [3]: 18.7 ± 1.31 nM | EC50 [4]: > 10000 nM | Ki [5]: > 10000 nM | EC50 of ERK activation [6]: in the nanomolar range | EC50 [7]: > 10000 nM | Ki [8]: > 10000 nM | EC50 [9]: > 10000 nM

EC50 of ERK activation [10]: in nanomolar concentrations
Molecule: CC(C)C[C@H](NC(=O)[C@H](N)Cc1ccc(O)cc1)C(=O)N(C)[C@@H](Cc1ccccc1)C(=O)N[C@@H](CCC(N)=O)C(=O)N1CCC[C@H]1C(=O)N[C@@H](CCC(N)=O)C(=O)N[C@@H](CCCNC(=N)N)C(=O)N[C@@H](Cc1ccccc1)C(N)=O [1DMe] (H-[dY]L[NMeF]QPQRF-NH2)

Molecule: SRAHQHSMETRTPDINPAWYTGRGIRPVGRF-NH2 [PrRP31, prolactin-releasing peptide 31, reference compound]
EC50 of ERK activation [10]: in nanomolar concentrations | EC50 of ERK activation [6]: in the nanomolar range

Ki [11]: 0.36 nM
Molecule: [D-Pro10]-dynorphin A (peptide)

EC50 [3]: 0.82 ± 0.15 nM | Ki [12]: > 10000 nM
Molecule: CC(C)C[C@H](NC(=O)[C@H](N)Cc1ccc(O)cc1)C(=O)N(C)[C@@H](Cc1ccccc1)C(=O)N[C@@H](CCC(N)=O)C(=O)N1CCC[C@H]1C(=O)N[C@@H](CCC(N)=O)C(=O)N[C@@H](CCCN=C(N)N)C(=O)N[C@@H](Cc1ccccc1)C(N)=O [1DMe] (H-[dY]L[NMeF]QPQRF-NH2)

Ki [13]: 1.03 nM | Ki [14]: 0.79 nM
B1: 1DMe (peptide)
peptide: [dY]L[NMeF]QPQRF-NH2
modifications: N-terminus assumed
SMILES: CC(C)C[C@H](NC(=O)[C@H](N)Cc1ccc(O)cc1)C(=O)N(C)[C@@H](Cc1ccccc1)C(=O)N[C@@H](CCC(N)=O)C(=O)N1CCC[C@H]1C(=O)N[C@@H](CCC(N)=O)C(=O)N[C@@H](CCCNC(=N)N)C(=O)N[C@@H](Cc1ccccc1)C(N)=O
notes: numbers count on: the peptide NPFF; source: synthetic peptide, purified (HPLC, purity greater than 95%)
